Literature values in patent publication US20080161402A1, “Targeting the Reverse Mode of the Na+/Ca2+ Exchanger For the Treatment of Neurodegenerative Conditions” (ALLERGAN, INC., priority 2004, published 2008).

System: Na+/Ca2+ exchanger
Settings: variety of cell types including neurons; reverse vs forward mode

## CS(=O)(=O)O.N=C(N)SCCc1ccc(OCc2ccc([N+](=O)[O-])cc2)cc1 [KB-R743, 2-[2-[4-(4-nitorbenzyloxy)phenyl]ethyl]isothiourea methanesulfonte]
  mode selectivity of Na+/Ca2+ exchanger block: preferentially block the reverse mode
